Assay results as given in patent US20190330224A1, “ACC INHIBITORS AND USES THEREOF” (Gilead Apollo, LLC, priority 2015, published 2019).
Values after ≈ are worked out from the molar mass of the structure shown.

Columns and labels:
[1] = compound concentration 10 ppm, foliar spray, evaluated 7 days after inoculation
Human ACC2 = Human ACC2 (Homo sapiens, UniProt O00763); assay: In vitro ACC2 inhibition assay (ADP-Glo), human ACC2; assay type: biochemical; conditions: 5 nM ACC2, 20 μM ATP, 20 μM acetyl-CoA
C. albicans ATCC 90028 = assay: Anti-Fungal Activity Assay (broth microtiter MIC), C. albicans; assay type: cell-based, Candida albicans; conditions: Candida albicans, ATCC90028, 48 h, 3 replicates; MIC recorded at 48 h; read-out: MIC C. albicans ATCC 90028
Summary of the method: (§1)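 Plate from frozen stock onto Sabouraud dextrose agar, 35° C overnight; swab colonies into RPMI 1640+MOPS; set density via standard curves; run CLSI M27-A3 broth microdilution; score MIC visually versus growth control at 48 h, soraphen additionally at 24 h.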

C. krusei ATCC 6258 = assay: Anti-Fungal Activity Assay (broth microtiter MIC), C. krusei; assay type: cell-based, Candida krusei; conditions: Pichia kudriavzevii, ATCC6258, 48 h, 3 replicates; MIC recorded at 48 h; read-out: MIC C. krusei ATCC 6258
Summary of the method: as §1

[2] = tested on: C. parapsilosis ATCC 22019; assay: Anti-Fungal Activity Assay (broth microtiter MIC), C. parapsilosis; assay type: cell-based, Candida parapsilosis; conditions: Lodderomyces parapsilosis, ATCC22019, 48 h, 3 replicates; MIC recorded at 48 h; read-out: MIC C. parapsilosis ATCC 22019
Summary of the method: as §1

Botrtyis cinerea (Bc) = assay: Growth inhibition assay of fungal pathogens, Bc; assay type: cell-based; conditions: 48 hours; read-out: Concentration at 90% Inhibition, Bc
Summary of the method: (§2)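 Spores in 17% V8 medium exposed to compound at final 50, 10, 2 ppm or 2, 0.4, 0.08 ppm, with 2% DMSO. OD600 and visual ratings taken at 24 and 48 h, with blank subtracted. Percent growth inhibition derived from 48 h readings relative to 2% DMSO control.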

[3] = tested on: Collectotrichum graminicola (Cg); assay: Growth inhibition assay of fungal pathogens, Cg; assay type: cell-based; conditions: 48 hours; read-out: Concentration at 90% Inhibition, Cg
Summary of the method: as §2

Diplodia maydis (Dm) = assay: Growth inhibition assay of fungal pathogens, Dm; assay type: cell-based; conditions: Stenocarpella maydis; 48 hours; read-out: Concentration at 90% Inhibition, Dm
Summary of the method: as §2

[4] = tested on: Fusarium moniliforme (Fm); assay: Growth inhibition assay of fungal pathogens, Fm; assay type: cell-based; conditions: Fusarium verticillioides; 48 hours; read-out: Concentration at 90% Inhibition, Fm
Summary of the method: as §2

[5] = tested on: Fusarium virguliforme (Fv); assay: Growth inhibition assay of fungal pathogens, Fv; assay type: cell-based; conditions: 48 hours, read-out: Concentration at 90% Inhibition, Fv
Summary of the method: as §2

[6] = tested on: Phytophthora capsici (Pc); assay: Growth inhibition assay of fungal pathogens, Pc; assay type: cell-based; conditions: 48 hours, read-out: Concentration at 90% Inhibition, Pc
Summary of the method: as §2

Rhizoctonia solani (Rs) = assay: Growth inhibition assay of fungal pathogens, Rs; assay type: cell-based; conditions: 48 hours, read-out: Concentration at 90% Inhibition, Rs
Septoria tritici (St) = assay: Growth inhibition assay of fungal pathogens, St; assay type: cell-based; conditions: Zymoseptoria tritici; 48 hours; read-out: Concentration at 90% Inhibition, St
Summary of the method: as §2

[7] = tested on: Blumeria graminis f sp. hordei; assay: Foliar protection test, barley powdery mildew control; assay type: in vivo, Blumeria graminis f sp. hordei on Hordeum vulgare cv. Perry; conditions: 168 h, compound concentration 50 ppm, foliar spray, evaluated 7 days after inoculation, read-out: Barley Powdery Mildew Control at 50 ppm
Summary of the method: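 Barley cv. Perry at first true leaf (6 days) sprayed to wetness on both leaf sides with compound in 5% acetone/0.005% Tween 80, typically at 200, 100, 50, 10 or 2 ppm. Inoculated 24 h later by shaking spores from colonized plants; kept at 20-22 °C, 70% RH. Mildew colonization scored 7 days later as percent control.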

Fungal ACC2 = Fungal ACC2 (UniProt Q00955); conditions: read-out: Fungal ACC2 (IC50, in vitro ACC2 inhibition)
Chain of Fungal ACC2 (Q00955 whole entry): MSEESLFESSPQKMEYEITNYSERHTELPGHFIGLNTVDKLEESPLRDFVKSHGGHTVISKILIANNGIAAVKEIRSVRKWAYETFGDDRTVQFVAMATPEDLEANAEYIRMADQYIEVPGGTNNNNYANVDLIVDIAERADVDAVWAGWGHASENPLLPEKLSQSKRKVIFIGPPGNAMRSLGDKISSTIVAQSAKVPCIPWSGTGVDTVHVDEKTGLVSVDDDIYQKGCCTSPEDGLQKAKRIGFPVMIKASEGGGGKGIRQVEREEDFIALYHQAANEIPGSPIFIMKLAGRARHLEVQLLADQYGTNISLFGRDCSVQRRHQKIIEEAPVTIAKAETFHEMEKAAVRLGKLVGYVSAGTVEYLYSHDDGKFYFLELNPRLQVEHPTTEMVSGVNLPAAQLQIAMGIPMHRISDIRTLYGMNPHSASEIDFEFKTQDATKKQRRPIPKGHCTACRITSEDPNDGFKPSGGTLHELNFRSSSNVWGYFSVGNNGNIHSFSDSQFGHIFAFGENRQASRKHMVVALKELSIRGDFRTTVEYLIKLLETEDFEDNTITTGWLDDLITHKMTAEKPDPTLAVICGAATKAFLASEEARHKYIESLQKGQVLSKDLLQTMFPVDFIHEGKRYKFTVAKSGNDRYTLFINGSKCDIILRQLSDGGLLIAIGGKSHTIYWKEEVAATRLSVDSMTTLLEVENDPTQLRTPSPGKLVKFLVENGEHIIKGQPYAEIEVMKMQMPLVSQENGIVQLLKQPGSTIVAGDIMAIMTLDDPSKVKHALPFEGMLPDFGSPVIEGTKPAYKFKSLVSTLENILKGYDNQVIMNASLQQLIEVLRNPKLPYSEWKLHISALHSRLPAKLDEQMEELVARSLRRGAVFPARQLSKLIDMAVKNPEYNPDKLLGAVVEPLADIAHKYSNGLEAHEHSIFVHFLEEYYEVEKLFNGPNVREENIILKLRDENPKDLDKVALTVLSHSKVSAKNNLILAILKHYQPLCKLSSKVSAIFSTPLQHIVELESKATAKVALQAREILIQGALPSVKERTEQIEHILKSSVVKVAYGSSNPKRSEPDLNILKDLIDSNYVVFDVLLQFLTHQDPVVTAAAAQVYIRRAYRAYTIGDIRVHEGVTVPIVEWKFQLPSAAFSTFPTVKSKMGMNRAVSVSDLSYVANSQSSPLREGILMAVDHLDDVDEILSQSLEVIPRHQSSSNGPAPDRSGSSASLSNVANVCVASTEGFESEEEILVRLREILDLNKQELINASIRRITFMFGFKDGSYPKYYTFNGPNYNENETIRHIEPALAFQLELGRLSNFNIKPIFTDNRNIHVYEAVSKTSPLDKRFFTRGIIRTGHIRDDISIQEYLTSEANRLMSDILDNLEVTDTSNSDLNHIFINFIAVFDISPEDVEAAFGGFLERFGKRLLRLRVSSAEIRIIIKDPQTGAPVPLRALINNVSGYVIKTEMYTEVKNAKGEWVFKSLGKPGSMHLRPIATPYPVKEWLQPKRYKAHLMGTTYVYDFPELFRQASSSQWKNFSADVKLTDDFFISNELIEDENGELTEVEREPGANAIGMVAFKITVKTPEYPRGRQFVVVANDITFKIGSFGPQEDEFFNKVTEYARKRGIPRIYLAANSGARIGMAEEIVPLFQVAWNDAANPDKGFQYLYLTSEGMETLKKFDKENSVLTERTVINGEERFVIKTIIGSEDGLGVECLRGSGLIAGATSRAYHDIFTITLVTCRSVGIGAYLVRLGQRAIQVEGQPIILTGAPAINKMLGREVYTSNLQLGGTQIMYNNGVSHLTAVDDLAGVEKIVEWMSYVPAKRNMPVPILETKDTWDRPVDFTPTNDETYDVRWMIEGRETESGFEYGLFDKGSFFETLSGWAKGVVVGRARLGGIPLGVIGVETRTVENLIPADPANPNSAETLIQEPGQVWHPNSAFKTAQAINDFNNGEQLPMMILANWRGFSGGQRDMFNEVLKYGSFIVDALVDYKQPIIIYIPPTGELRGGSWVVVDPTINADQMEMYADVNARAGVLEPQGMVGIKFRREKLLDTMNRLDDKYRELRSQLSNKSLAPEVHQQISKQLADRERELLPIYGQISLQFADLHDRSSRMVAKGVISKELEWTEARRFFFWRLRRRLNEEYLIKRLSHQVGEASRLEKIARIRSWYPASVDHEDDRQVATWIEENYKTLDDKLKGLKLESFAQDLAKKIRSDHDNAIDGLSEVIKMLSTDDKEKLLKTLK

Chain of Human ACC2 (O00763 whole entry): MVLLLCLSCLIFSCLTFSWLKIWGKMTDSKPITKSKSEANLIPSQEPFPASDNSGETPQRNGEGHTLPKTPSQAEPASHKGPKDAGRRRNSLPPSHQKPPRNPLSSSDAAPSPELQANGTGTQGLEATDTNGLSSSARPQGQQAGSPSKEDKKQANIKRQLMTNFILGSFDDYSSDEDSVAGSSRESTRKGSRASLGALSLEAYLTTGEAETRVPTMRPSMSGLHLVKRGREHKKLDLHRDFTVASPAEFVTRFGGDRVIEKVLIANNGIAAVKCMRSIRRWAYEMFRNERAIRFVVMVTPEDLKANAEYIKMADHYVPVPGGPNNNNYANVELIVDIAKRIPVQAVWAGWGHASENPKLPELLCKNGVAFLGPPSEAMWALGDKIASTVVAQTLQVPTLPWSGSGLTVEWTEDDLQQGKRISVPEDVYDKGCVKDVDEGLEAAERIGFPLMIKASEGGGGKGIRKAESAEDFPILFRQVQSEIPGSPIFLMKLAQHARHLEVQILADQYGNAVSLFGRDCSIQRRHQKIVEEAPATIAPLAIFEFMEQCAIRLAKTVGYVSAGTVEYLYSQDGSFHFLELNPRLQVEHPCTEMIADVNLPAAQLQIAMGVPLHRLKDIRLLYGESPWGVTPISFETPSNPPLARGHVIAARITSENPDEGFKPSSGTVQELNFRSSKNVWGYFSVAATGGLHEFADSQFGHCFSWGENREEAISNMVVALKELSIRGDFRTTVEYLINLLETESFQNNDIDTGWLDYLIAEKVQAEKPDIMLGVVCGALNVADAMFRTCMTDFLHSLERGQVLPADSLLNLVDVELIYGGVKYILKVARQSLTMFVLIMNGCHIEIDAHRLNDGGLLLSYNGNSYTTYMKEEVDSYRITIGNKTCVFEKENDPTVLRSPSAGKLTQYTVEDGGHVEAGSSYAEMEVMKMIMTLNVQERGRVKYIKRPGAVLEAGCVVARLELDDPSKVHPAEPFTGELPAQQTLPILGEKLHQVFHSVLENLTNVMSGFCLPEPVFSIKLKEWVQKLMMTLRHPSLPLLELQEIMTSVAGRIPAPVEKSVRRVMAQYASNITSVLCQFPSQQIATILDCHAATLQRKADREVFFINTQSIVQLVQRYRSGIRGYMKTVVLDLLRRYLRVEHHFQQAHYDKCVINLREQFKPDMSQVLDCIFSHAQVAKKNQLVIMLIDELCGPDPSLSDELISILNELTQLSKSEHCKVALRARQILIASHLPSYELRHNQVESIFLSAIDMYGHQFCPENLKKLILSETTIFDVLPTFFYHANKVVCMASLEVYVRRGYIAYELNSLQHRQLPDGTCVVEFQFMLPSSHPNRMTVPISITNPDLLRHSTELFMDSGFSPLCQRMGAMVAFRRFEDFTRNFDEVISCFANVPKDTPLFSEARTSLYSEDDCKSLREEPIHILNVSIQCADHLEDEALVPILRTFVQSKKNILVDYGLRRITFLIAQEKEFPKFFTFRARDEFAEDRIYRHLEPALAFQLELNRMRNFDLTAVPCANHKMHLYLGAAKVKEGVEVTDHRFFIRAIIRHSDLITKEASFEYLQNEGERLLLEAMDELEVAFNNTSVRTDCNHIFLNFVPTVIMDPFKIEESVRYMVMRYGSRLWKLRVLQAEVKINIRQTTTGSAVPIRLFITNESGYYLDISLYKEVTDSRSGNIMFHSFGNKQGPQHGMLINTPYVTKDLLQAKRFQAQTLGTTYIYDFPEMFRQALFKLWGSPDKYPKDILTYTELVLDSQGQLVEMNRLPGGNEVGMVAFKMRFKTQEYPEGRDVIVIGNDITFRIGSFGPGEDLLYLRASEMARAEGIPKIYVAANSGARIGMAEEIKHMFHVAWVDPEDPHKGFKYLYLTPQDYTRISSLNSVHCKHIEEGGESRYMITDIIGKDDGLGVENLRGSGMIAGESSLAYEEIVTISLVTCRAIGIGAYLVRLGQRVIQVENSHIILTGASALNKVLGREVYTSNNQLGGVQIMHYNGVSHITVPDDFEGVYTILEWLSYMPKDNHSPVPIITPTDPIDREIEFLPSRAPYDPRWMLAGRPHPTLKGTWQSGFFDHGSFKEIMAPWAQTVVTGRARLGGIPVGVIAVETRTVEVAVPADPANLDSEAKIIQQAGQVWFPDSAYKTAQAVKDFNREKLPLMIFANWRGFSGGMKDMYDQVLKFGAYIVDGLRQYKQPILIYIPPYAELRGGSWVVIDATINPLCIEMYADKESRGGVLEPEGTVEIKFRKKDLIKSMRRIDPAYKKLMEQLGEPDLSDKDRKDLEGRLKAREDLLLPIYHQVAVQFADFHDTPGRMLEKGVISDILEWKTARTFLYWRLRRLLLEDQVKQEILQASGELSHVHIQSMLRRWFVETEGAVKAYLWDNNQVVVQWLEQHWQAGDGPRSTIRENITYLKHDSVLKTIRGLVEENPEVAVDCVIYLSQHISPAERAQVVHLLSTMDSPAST

SMILES	Barley Powdery Mildew Control at 10 ppm [1]	IC50 (Human ACC2)	MIC (C. albicans ATCC 90028)	MIC (C. krusei ATCC 6258)	MIC [2]	IC90 (Botrtyis cinerea (Bc))	IC90 [3]	IC90 (Diplodia maydis (Dm))	IC90 [4]	IC90 [5]	IC90 [6]	IC90 (Rhizoctonia solani (Rs))	IC90 (Septoria tritici (St))	pest or weed control at 50 ppm [7]	IC50 (Fungal ACC2)
COc1ccc(F)cc1[C@H](Cn1c(=O)n([C@H]2CCCN(C)C2=O)c(=O)c2c(C)c(-n3nccn3)sc21)OCCO [Compound I-72, 1-((R)-2-(5-fluoro-2-methoxyphenyl)-2-(2-hydroxyethoxy)ethyl)-5-methyl-3-((S)-1-methyl-2-oxopiperidin-3-yl)-6-(2H-1,2,3-triazol-2-yl)thieno[2,3-d]pyrimidine-2,4(1H,3H)-dione]	D (provided a compound having <25% control of barley powdery mildew)	2 to 10 nM	2.1 to 4 µg/mL (≈ 3.67 to 6.99 µM)	2.1 to 4 µg/mL (≈ 3.67 to 6.99 µM)	2.1 to 4 µg/mL (≈ 3.67 to 6.99 µM)	> 50 µg/mL	10 µg/mL (≈ 17.5 µM)	10 µg/mL (≈ 17.5 µM)	2 µg/mL (≈ 3.49 µM)	2 µg/mL (≈ 3.49 µM)	> 50 µg/mL	2 µg/mL (≈ 3.49 µM)	> 50 µg/mL	25 to 49%	0.7 to 2 nM
COCCO[C@@H](Cn1c(=O)n([C@H]2CCCNC2=O)c(=O)c2c(C)c(-n3nccn3)sc21)c1cc(F)ccc1OC [Compound I-29, 1-((R)-2-(5-fluoro-2-methoxyphenyl)-2-(2-methoxy-ethoxy)ethyl)-5-methyl-3-((S)-2-oxopiperidin-3-yl)-6-(2H-1,2,3-triazol-2-yl)thieno[2,3-d]pyrimidine-2,4(1H,3H)-dione]	C (provided a compound having from 25 to 49% control of barley powdery mildew)	10 to 100 nM	2.1 to 4 µg/mL (≈ 3.67 to 6.99 µM)	2.1 to 4 µg/mL (≈ 3.67 to 6.99 µM)	2.1 to 4 µg/mL (≈ 3.67 to 6.99 µM)	10 µg/mL (≈ 17.5 µM)	> 50 µg/mL	> 50 µg/mL	10 µg/mL (≈ 17.5 µM)	> 50 µg/mL	> 50 µg/mL	> 50 µg/mL	> 50 µg/mL	70 to 84%	0.7 to 2 nM
COc1ccc(F)cc1[C@H](Cn1c(=O)n([C@H]2CCN(C)C2=O)c(=O)c2c(C)c(-n3nccn3)sc21)OCCO [Compound I-82, 1-((R)-2-(5-fluoro-2-methoxyphenyl)-2-(2-hydroxy-ethoxy)ethyl)-5-methyl-3-((S)-1-methyl-2-oxopyrrolidin-3-yl)-6-(2H-1,2,3-triazol-2-yl)thieno[2,3-d]pyrimidine-2,4(1H,3H)-dione]	D (provided a compound having <25% control of barley powdery mildew)	2 to 10 nM	2.1 to 4 µg/mL (≈ 3.76 to 7.16 µM)	2.1 to 4 µg/mL (≈ 3.76 to 7.16 µM)	2.1 to 4 µg/mL (≈ 3.76 to 7.16 µM)	2 µg/mL (≈ 3.58 µM)	10 µg/mL (≈ 17.9 µM)	10 µg/mL (≈ 17.9 µM)	2 µg/mL (≈ 3.58 µM)	2 µg/mL (≈ 3.58 µM)	> 50 µg/mL	2 µg/mL (≈ 3.58 µM)	> 50 µg/mL	25 to 49%	0.7 to 2 nM
COCCO[C@@H](Cn1c(=O)n([C@@H]2CCCN(C)C2=O)c(=O)c2c(C)c(-n3nccn3)sc21)c1cc(F)ccc1OC [Compound I-32, 1-((R)-2-(5-fluoro-2-methoxyphenyl)-2-(2-methoxy-ethoxy)ethyl)-5-methyl-3-((R)-1-methyl-2-oxopiperidin-3-yl)-6-(2H-1,2,3-triazol-2-yl)thieno[2,3-d]pyrimidine-2,4(1H,3H)-dione]	C (provided a compound having from 25 to 49% control of barley powdery mildew)	10 to 100 nM	2.1 to 4 µg/mL (≈ 3.58 to 6.82 µM)	2.1 to 4 µg/mL (≈ 3.58 to 6.82 µM)	2.1 to 4 µg/mL (≈ 3.58 to 6.82 µM)	10 µg/mL (≈ 17 µM)	> 50 µg/mL	> 50 µg/mL	2 µg/mL (≈ 3.41 µM)	> 50 µg/mL	> 50 µg/mL	> 50 µg/mL	> 50 µg/mL	70 to 84%	0.7 to 2 nM
COc1ccc(F)cc1[C@H](Cn1c(=O)n([C@H]2CCNC2=O)c(=O)c2c(C)c(-n3nccn3)sc21)OCCO [Compound I-80, 1-((R)-2-(5-fluoro-2-methoxyphenyl)-2-(2-hydroxy-ethoxy)ethyl)-5-methyl-3-((S)-2-oxopyrrolidin-3-yl)-6-(2H-1,2,3-triazol-2-yl)thieno[2,3-d]pyrimidine-2,4(1H,3H)-dione]	D (provided a compound having <25% control of barley powdery mildew)	2 to 10 nM	2.1 to 4 µg/mL (≈ 3.86 to 7.35 µM)	2.1 to 4 µg/mL (≈ 3.86 to 7.35 µM)	2.1 to 4 µg/mL (≈ 3.86 to 7.35 µM)	2 µg/mL (≈ 3.67 µM)	> 50 µg/mL	> 50 µg/mL	2 µg/mL (≈ 3.67 µM)	10 µg/mL (≈ 18.4 µM)	> 50 µg/mL	10 µg/mL (≈ 18.4 µM)	> 50 µg/mL	25 to 49%	0.7 to 2 nM
COCCO[C@@H](Cn1c(=O)n([C@@H]2CCCN(C)C2=O)c(=O)c2c(C)c(-n3cccn3)sc21)c1cc(F)ccc1OC [Compound I-48, 1-((R)-2-(5-fluoro-2-methoxyphenyl)-2-(2-methoxy-ethoxy)ethyl)-5-methyl-3-((R)-1-methyl-2-oxopiperidin-3-yl)-6-(1H-pyrazol-1-yl)thieno[2,3-d]pyrimidine-2,4(1H,3H)-dione]	C (provided a compound having from 25 to 49% control of barley powdery mildew)	100 to 1000 nM	2.1 to 4 µg/mL (≈ 3.59 to 6.83 µM)	2.1 to 4 µg/mL (≈ 3.59 to 6.83 µM)	2.1 to 4 µg/mL (≈ 3.59 to 6.83 µM)	> 50 µg/mL	> 50 µg/mL	> 50 µg/mL	> 50 µg/mL	> 50 µg/mL	> 50 µg/mL	> 50 µg/mL	> 50 µg/mL	50 to 69%	10 to 100 nM
COc1ccc(F)cc1[C@H](Cn1c(=O)n([C@@H]2CCN(C)C2=O)c(=O)c2c(C)c(-n3nccn3)sc21)OCCO [Compound I-83, 1-((R)-2-(5-fluoro-2-methoxyphenyl)-2-(2-hydroxy-ethoxy)ethyl)-5-methyl-3-((R)-1-methyl-2-oxopyrrolidin-3-yl)-6-(2H-1,2,3-triazol-2-yl)thieno[2,3-d]pyrimidine-2,4(1H,3H)-dione]	D (provided a compound having <25% control of barley powdery mildew)	2 to 10 nM	2.1 to 4 µg/mL (≈ 3.76 to 7.16 µM)	2.1 to 4 µg/mL (≈ 3.76 to 7.16 µM)	2.1 to 4 µg/mL (≈ 3.76 to 7.16 µM)	2 µg/mL (≈ 3.58 µM)	2 µg/mL (≈ 3.58 µM)	10 µg/mL (≈ 17.9 µM)	2 µg/mL (≈ 3.58 µM)	10 µg/mL (≈ 17.9 µM)	> 50 µg/mL	2 µg/mL (≈ 3.58 µM)	> 50 µg/mL	70 to 84%	0.7 to 2 nM
